These results are taken from patent publication US8404866B2, “Substituted heterocyclic mercaptosulfonamide metalloprotease inhibitors” (Florida State University Research Foundation, priority 2008, dated 2013).

One may read the IC50 as the concentration at which inhibition is half-maximal. By Ki is commonly meant a measure of affinity in units of concentration, obtained from inhibition or displacement.

The structures appear in SMILES notation. Structures can show the parent of a compound that is named as a salt.

The target in test [1] is T1, MMP-1 (HFC; human fibroblast collagenase) (Homo sapiens, UniProt P03956).
T1 sequence (P03956 100-469): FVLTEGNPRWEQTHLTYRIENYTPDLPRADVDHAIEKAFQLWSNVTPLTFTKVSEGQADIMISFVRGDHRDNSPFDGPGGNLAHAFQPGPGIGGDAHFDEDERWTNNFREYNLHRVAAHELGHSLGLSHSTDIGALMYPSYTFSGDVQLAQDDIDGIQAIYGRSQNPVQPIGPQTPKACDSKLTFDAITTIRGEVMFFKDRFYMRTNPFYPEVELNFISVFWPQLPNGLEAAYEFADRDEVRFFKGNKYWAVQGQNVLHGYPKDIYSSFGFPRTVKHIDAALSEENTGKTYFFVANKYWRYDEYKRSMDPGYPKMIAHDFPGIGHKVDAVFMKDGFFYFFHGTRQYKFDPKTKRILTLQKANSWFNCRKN
Nature of the test: Enzyme kinetic assay, inhibition of MMP-1. It counts as biochemical. The note with it: 25° C., pH 7.5, substrate 1 μM; read-out: IC50 (value without parentheses), HFC MMP-1. The text has this:
(§1) The following protocol was used to obtain the data found in the following table. Materials: The fluorescent peptide substrates for matrix metalloproteinases (MMPs) used were purchased from Bachem Chem. Co. The metal salts and Brij-35 were purchased from Fisher Scientific Inc. All other chemicals were purchased from Sigma-Aldrich Chem. Co. The sources and biochemical characterizations of multiple MMPs, including MMP-1/human fibroblast collagenase (HFC), MMP-2/human fibroblast gelatinase (HFG), MMP-8/human neutrophil collagenase (HNC), and MMP-9/human neutrophil gelatinase (HNG), MMP-7/human matrilysin (MLN), MMP-3/human fibroblast stromelysin-1 (HFS), human recombinant catalytic domain of membrane-type 1 matrix metalloproteinase (cdMT1-MMP), catalytic domain of MMP-12/metalloelastase (cdMET), and MMP-26/human endometase (EDM) were described previously (Sang, Q. X., Birkedal-Hansen, H., and Van Wart, H. E. Proteolytic and non-proteolytic activation of human neutrophil progelatinase B. Biochim. Biophys. Acta. 1995; 1251, 99-108; Sang, Q. A., Bodden, M. K., and Windsor, L. J. Activation of human progelatinase A by collagenase and matrilysin: activation of procollagenase by matrilysin. J. Protein. Chem. 1996; 15, 243-253; Li, H., Bauzon, D. E., Xu, X., Tschesche, H., Cao, J., and Sang, Q.-X. A. Immunological characterization of cell-surface and soluble forms of membrane type 1 matrix metalloproteinase in human breast cancer cells and in fibroblasts. Molec. Carcinog. 1998; 22, 84-94; Park, H. I., Ni, J., Gerkema, F. E., Liu, D., Belozerov, V. E., and Sang, Q.-X. A. Identification and characterization of human endometase (Matrix metalloproteinase-26) from endometrial tumor. J. Biol. Chem., 2000; 275, 20540-20544). The active concentrations of MMPs were determined by titration with GM6001, a tight-binding MMP inhibitor, as described previously (Park, H. I., Turk, B. E., Gerkema, F. E., Cantley, L. C., and Sang, Q.-X. A. Peptide substrate specificities and protein cleavage sites of human endometase/matrilysin-2/matrix metalloproteinase-26. J. Biol. Chem. 2002; 277, 35168-35175).
(§2) The active inhibitor concentrations were estimated by titrating the mercapto group with 5,5′-dithiobis(2-nitrobenzoic acid) (DTNB; Ellman's reagent) as described previously (Ellman, G. L. A colorimetric method for determining low concentrations of mercaptans. Arch. Biochem. Biophys. 1958; 74, 443-450; Ellman, G. L. Tissue sulfhydryl groups. Arch. Biochem. Biophys. 1959; 82, 70-77; Riddles, P. W., Blakeley, R. L., and Zerner, B. Ellman's reagent: 5,5′-dithiobis(2-nitrobenzoic acid)—a reexamination. Anal. Biochem. 1979; 94, 75-81). Briefly, the reaction of DTNB with the mercapto group produces 2-nitro-5-thiobenzoic acid (TNB). The concentration of TNB is then measured by monitoring the absorbance at 412 nm. Cysteine was used to generate the standard curve with a molar extinction coefficient of 14,000±500 M^−1 cm^−1, which is close to the value in the literature (Riddles, P. W., Blakeley, R. L., and Zerner, B. Ellman's reagent: 5,5′-dithiobis(2-nitrobenzoic acid)—a reexamination. Anal. Biochem. 1979; 94, 75-81).
(§3) The substrate Mca-PLGLDpaAR-NH2 was used to measure inhibition constants (Knight, C. G., Willenbrock. F., and Murphy, G. A novel coumarin-labelled peptide for sensitive continuous assays of the matrix metalloproteinases. FEBS Lett. 1992; 296, 263-266). Enzymatic assays were performed at 25° C. in 50 mM HEPES buffer at pH 7.5 in the presence of 10 mM CaCl2, 0.2 M NaCl, and 0.01% or 0.05% Brij-35 with substrate concentrations of 1 μM. The release of product was monitored by measuring fluorescence (excitation and emission wavelengths of 328 nm and 393 nm, respectively) with a Perkin Elmer Luminescence Spectrophotometer LS 50B connected to a temperature controlled water bath. All stock solutions of inhibitors were in dimethyl sulfoxide. […]

In test [2] the target is MMP-9 (HNG; human neutrophil gelatinase) (Homo sapiens, UniProt P14780). In words: Enzyme kinetic assay, inhibition of MMP-9. The test is classed as biochemical. Conditions: read-out: Ki (value in parentheses), HNG MMP-9.
Sequence of MMP-9 (HNG; human neutrophil gelatinase) (P14780 94-707): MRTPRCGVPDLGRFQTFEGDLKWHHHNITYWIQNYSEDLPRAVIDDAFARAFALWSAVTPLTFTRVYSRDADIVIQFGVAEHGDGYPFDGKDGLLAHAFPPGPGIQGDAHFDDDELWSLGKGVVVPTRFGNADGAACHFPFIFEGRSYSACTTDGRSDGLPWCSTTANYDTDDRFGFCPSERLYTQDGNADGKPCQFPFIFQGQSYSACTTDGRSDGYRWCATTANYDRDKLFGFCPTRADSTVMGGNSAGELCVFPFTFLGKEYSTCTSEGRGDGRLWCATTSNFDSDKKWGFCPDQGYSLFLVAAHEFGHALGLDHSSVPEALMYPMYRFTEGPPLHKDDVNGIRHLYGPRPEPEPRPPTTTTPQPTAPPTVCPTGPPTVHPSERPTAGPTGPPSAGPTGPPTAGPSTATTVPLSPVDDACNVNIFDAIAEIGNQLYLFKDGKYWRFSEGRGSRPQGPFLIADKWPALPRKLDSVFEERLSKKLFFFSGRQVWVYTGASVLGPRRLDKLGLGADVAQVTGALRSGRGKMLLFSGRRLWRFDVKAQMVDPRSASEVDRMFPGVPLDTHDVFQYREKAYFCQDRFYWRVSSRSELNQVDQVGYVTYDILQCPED
Excerpt: as §1, §2, §3

For test [3], the target named is T2, MMP-2 (HFG; human fibroblast gelatinase) (Homo sapiens, UniProt P08253).
T2 sequence (P08253 110-660): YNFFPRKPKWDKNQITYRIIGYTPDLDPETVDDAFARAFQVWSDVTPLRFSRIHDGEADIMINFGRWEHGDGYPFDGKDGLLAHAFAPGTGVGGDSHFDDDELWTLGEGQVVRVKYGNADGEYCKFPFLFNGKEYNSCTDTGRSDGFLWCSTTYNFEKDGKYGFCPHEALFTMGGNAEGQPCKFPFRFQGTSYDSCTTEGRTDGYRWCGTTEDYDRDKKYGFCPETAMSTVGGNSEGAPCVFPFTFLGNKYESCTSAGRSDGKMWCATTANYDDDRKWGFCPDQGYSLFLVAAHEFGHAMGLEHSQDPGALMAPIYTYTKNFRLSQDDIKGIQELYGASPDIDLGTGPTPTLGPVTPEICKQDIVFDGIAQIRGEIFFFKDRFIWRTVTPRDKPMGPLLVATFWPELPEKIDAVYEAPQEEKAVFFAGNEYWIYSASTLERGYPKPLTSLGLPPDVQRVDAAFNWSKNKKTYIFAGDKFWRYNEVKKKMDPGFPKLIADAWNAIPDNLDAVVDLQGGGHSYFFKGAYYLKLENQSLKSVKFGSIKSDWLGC
In words: Enzyme kinetic assay, inhibition of MMP-2. It counts as biochemical. The note with it: read-out: Ki (value in parentheses), HFG MMP-2.
Excerpt: as §1, §2, §3

In test [4] the target is MMP-3 (HFS; human fibroblast stromelysin-1) (Homo sapiens, UniProt P08254). In words: Enzyme kinetic assay, inhibition of MMP-3. Conditions: read-out: Ki (value in parentheses), HFS MMP-3. It counts as biochemical.
Sequence of MMP-3 (HFS; human fibroblast stromelysin-1) (P08254 100-477): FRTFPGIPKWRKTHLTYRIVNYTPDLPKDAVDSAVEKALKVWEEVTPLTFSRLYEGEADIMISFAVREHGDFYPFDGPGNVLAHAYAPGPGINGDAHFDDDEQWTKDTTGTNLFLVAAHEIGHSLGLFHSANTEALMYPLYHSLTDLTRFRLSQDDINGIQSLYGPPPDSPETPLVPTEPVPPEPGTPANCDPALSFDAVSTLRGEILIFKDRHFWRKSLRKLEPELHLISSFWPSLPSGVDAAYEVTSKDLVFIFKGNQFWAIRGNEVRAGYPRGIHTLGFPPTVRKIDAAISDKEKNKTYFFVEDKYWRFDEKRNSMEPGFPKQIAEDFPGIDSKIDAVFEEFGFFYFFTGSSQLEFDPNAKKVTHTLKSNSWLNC
Excerpt: as §1, §2, §3

Another test has as its system blood-brain barrier. Conditions: ischemia reperfusion model in the rat; cited from earlier work.
The test system of another test is brain. Conditions: following hemorrhage; cited from earlier work.
The test system of the next test is kidneys. The note with it: given prior to disease induction; cited from earlier work.
The subject of another test is EAN animal model. The note with it: cited from earlier work.
Test [5] relates to experimental autoimmune uveitis. Conditions: cited from earlier work.
For another test, the system named is lethal acute GVHD. The note with it: mouse model of lethal acute GVHD; cited from earlier work.
Another test has as its system insulin resistance. Conditions: mouse model of insulin resistance; cited from earlier work.
A further test concerns stented arteries. Conditions: compared to placebo; cited from earlier work.
For the next test, the system named is EAE animal model. The note with it: administered daily from disease induction or from onset of clinical signs; cited from earlier work.

`O=C(OCc1ccccc1)N1C[C@H](S)[C@H](NS(=O)(=O)c2ccc(Oc3ccccc3)cc2)C1` [Example 13, (3R,4S)—N-Cbz-3-(4-Phenoxybenzenesulfonamido)-4-mercaptopyrrolidine]: in test [1], the IC50 was approximately 125 µM. Further, the Ki was 3.1 µM in test [2], 1.8 µM in test [3] and 5.4 µM in [4].

As for `O=S(=O)(N[C@H]1CNC[C@@H]1S)c1ccc(Oc2ccccc2)cc1` [Example 10, (3S,4S)-3-(4-Phenoxybenzenesulfonamido)-4-mercaptopyrrolidine Hydrochloride], the IC50 in [1] was 50 µM. The Ki in test [2] is 0.21 µM; in test [3] it was 0.038 µM; in test [4], 5.9 µM.

With `O=S(=O)(N[C@@H]1CNC[C@H]1S)c1ccc(Oc2ccccc2)cc1` [Example 11, (3R,4R)-3-(4-Phenoxybenzenesulfonamido)-4-mercaptopyrrolidine Hydrochloride], the IC50 in [1] worked out at 6.3 µM. Also, the Ki is 0.23 µM in [2], 0.049 µM in test [3] and 1.6 µM in test [4].

Turning to `NC(=O)N1C[C@H](NS(=O)(=O)c2ccc(Oc3ccccc3)cc2)[C@@H](S)C1` [Example 12, (3S,4S)—N-Carbamoyl-3-(4-phenoxybenzene-sulfonamido)-4-mercaptopyrrolidine], the Ki turned out to be 0.013 µM in [2], 0.01 µM in test [3] and 1.7 µM in test [4].

For `O=C(OCc1ccccc1)N1C[C@@H](S)[C@@H](NS(=O)(=O)c2ccc(Oc3ccccc3)cc2)C1` [Example 14, (3S,4R)—N-Cbz-3-(4-Phenoxybenzenesulfonamido)-4-mercaptopyrrolidine], the IC50 in test [1] was more than 3 µM. In addition, the Ki in test [2] came out at 2.2 µM; in test [3], 0.8 µM; in test [4], 3.4 µM.

For `C=CC[C@H](C(=O)NO)[C@@H](CC(C)C)C(=O)N[C@@H](Cc1ccccc1)C(=O)NC` [BB-1101], in the test with blood-brain barrier, the “early phases of blood-brain barrier leakage” value is on record as “reduces”. The secondary brain edema result in the test on brain is listed as “reduces”. In addition, the “inflammatory response and damage” value in the test with kidneys is “significantly reduced”. Moreover, the “EAN symptoms, inflammation, demyelination, weight loss” value in the test with EAN animal model (given from the initiation of EAN) is “prevented the development of symptoms and reduced inflammation, demyelination, and weight loss”. The EAN disease severity entry in the test with EAN animal model (given from the onset of symptoms) is “significantly reduced disease severity”. Also, in test [5], the retinal damage result was “shown to reduce retinal damage”.

Regarding `CNC(=O)[C@@H](NC(=O)[C@H](CC(C)C)[C@H](C)C(=O)NO)c1ccccc1` [KB-R7785], the mortality result with lethal acute GVHD is “reduced mortality”. Besides, the “plasma glucose and insulin levels” value in the test on insulin resistance is “significant decrease”.

In the case of `CNC(=O)[C@H](Cc1c[nH]c2ccccc12)NC(=O)[C@@H](CC(=O)NO)CC(C)C` [GM6001], in the test with stented arteries, the “intimal hyperplasia and collagen content” value is recorded as “significantly inhibited”; the lumen area entry is reported as “increasing the lumen area”; the rates of proliferation result is “without affecting the rates of proliferation”. Also, the “clinical signs of EAE” value in the test with EAE animal model is recorded as “suppressed the development or reversed clinical signs of EAE in a dose-dependent way”.
